# Laboratory results from patent publication US10695334B2, “Heteroaromatic carboxamide derivatives as plasma kallikrein inhibitors” (Boehringer Ingelheim International GmbH, priority 2018, dated 2020).
# Biological target: Human PKK (Homo sapiens (Human), UniProt P03952)
# Assay: Inhibition of PKK, endpoint assay (human PKK)
# Type: biochemical
# Settings: substrate H-Pro-Phe-Arg-AMC, 1 h room temperature
# Procedure: Subsequently, PPACK II (Calbiochem) was added as a stop solution to achieve a final concentration of 1 μM and fluorescence was measured using an Envision Reader (PerkinElmer) with the wavelength excitation setting of 355 nm and the wavelength emission setting of 460 nm.
# Human PKK, sequence (P03952 391-638): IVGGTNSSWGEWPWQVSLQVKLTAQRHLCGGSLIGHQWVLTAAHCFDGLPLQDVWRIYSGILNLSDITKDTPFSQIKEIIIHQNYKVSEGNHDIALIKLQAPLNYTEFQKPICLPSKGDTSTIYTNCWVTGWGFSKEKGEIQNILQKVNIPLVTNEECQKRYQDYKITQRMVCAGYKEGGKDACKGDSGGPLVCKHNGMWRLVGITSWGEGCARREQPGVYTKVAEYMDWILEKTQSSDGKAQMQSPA
# Human PKK, sequence (P03952 20-390 partner): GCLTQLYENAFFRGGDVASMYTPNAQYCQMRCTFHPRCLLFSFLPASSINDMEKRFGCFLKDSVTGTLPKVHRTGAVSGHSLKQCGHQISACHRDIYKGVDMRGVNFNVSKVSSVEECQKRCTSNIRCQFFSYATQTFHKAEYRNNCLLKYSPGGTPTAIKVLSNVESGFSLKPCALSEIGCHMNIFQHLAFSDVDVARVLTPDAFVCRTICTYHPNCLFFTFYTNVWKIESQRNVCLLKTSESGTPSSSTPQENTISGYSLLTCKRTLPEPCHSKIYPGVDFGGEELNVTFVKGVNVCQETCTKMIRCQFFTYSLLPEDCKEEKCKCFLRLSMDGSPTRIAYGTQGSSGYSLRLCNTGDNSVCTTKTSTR
row,IC50 [nM],SMILES
1,20,"Cc1nc(N2CC(n3cccn3)C2)ccc1Cn1cc(C(=O)N[C@@H]2CCc3c2n[nH]c3C)cn1 [Example 58, N-[(6R)-3-Methyl-2H,4H,5H,6H-cyclopenta[c]pyrazol-6-yl]-1-({2-methyl-6[3-(1H-pyrazol-1-yl)azetidin-1-yl]pyridin-3-yl}methyl)-1H-pyrazole-4-carboxamide]"
2,17,"Cc1nc(N2C[C@@H]3[C@@H](O)[C@@H]3C2)ccc1Cn1cc(C(=O)N[C@@H]2CCc3c2n[nH]c3C)cn1 [Example 59, 1-({6-[(1R,5S,6R)-6-Hydroxy-3-azabicyclo[3.1.0]hexan-3-yl]-2-methylpyridin-3-yl}methyl)-N-[(6R)-3-methyl-2H,4H,5H,6H-cyclopenta[c]pyrazol-6-yl]-1H-pyrazole-4-carboxamide]"
3,7,"Cc1nc(N2CCC(C(F)(F)F)C2)ccc1Cn1cc(C(=O)N[C@@H]2CCc3c2n[nH]c3C)cn1 (stereo partly drawn) [Example 60, N-[(6R)-3-Methyl-2H,4H,5H,6H-cyclopenta[c]pyrazol-6-yl]-1-({2-methyl-6-[3-(trifluoromethyl)pyrrolidin-1-yl]pyridin-3-yl}methyl)-1H-pyrazole-4-carboxamide]"
4,5,"Cc1nc(N2CC(C)C2)ccc1Cn1cc(C(=O)N[C@@H]2CCc3c2n[nH]c3C)cn1 [Example 61, N-[(6R)-3-Methyl-2H,4H,5H,6H-cyclopenta[c]pyrazol-6-yl]-1-{[2-methyl-6-(3-methylazetidin-1-yl)pyridin-3-yl]methyl}-1H-pyrazole-4-carboxamide]"
5,7,"Cc1nc(N2CC3CCCC3C2)ccc1Cn1cc(C(=O)N[C@@H]2CCc3c2n[nH]c3C)cn1 (stereo partly drawn) [Example 62, N-[(6R)-3-Methyl-2H,4H,5H,6H-cyclopenta[c]pyrazol-6-yl]-1-[(2-methyl-6-{octahydrocyclopenta[c]pyrrol-2-yl}pyridin-3-yl)methyl]-1H-pyrazole-4-carboxamide]"
6,85,"Cc1nc(N2CC3(CCOCC3)C2)ccc1Cn1cc(C(=O)N[C@@H]2CCc3c2n[nH]c3C)cn1 [Example 63, N-[(6R)-3-Methyl-2H,4H,5H,6H-cyclopenta[c]pyrazol-6-yl]-1-[(2-methyl-6-{7-oxa-2-azaspiro[3.5]nonan-2-yl]pyridin-3-yl)methyl]-1H-pyrazole-4-carboxamide]"
7,10,"Cc1nc(N2CCCCCC2)ccc1Cn1cc(C(=O)N[C@@H]2CCc3c2n[nH]c3C)cn1 [Example 65, 1-{[6-(Azepan-1-yl)-2-methylpyridin-3-yl]methyl}-N-[(6R)-3-methyl-2H,4H,5H,6H-cyclopenta[c]pyrazol-6-yl]-1H-pyrazole-4-carboxamide]"
8,51,"Cc1nc(N2CCC3C(CC2)C3(F)F)ccc1Cn1cc(C(=O)N[C@@H]2CCc3c2n[nH]c3C)cn1 (stereo partly drawn) [Example 66, 1-[(6-{8,8-Difluoro-4-azabicyclo[5.1.0]octan-4-yl]-2-methylpyridin-3-yl)methyl]-N-[(6R)-3-methyl-2H,4H,5H,6H-cyclopenta[c]pyrazol-6-yl]-1H-pyrazole-4-carboxamide]"
9,4,"Cc1nc(N2CC3CCC3C2)ccc1Cn1cc(C(=O)N[C@@H]2CCc3c2n[nH]c3C)cn1 (stereo partly drawn) [Example 68, 1-[(6-{3-Azabicyclo[3.2.0]heptan-3-yl}-2-methylpyridin-3-yl)methyl]-N-[(6R)-3-methyl-2H,4H,5H,6H-cyclopenta[c]pyrazol-6-yl]-1H-pyrazole-4-carboxamide]"
10,17,"Cc1nc(N2CC(C(F)(F)F)C2)ccc1Cn1cc(C(=O)N[C@@H]2CCc3c2n[nH]c3C)cn1 [Example 69, N-[(6R)-3-Methyl-2H,4H,5H,6H-cyclopenta[c]pyrazol-6-yl]-1-({2-methyl-6-[3-(trifluoromethyl)azetidin-1-yl]pyridin-3-yl}methyl)-1H-pyrazole-4-carboxamide]"

row,SMILES,IC50 [nM]
1,"Cc1nc(N2CC3CC(C2)O3)ccc1Cn1cc(C(=O)N[C@@H]2CCc3c2n[nH]c3C)cn1 [Example 64, N-[(6R)-3-Methyl-2H,4H,5H,6H-cyclopenta[c]pyrazol-6-yl]-1-[(2-methyl-6-{6-oxa-3-azabicyclo[3.1.1]heptan-3-yl}pyridin-3-yl)methyl]-1H-pyrazole-4-carboxamide]",32
